# Entries after “also recorded” stand apart in the source; their conditions may differ.
# How the values were obtained:
# [1] = test system: T lymphocytes or endocervical cell lines; conditions: cited from earlier work
# [2] = test system: bacteria; conditions: cited from earlier work; for antibacterial activity, previously shown: control peptides, for caerin 1.3 against most of the bacteria tested
# Excerpt: Its sequence is shown here for comparison with the synthetically modified caerin 1.1 peptide. Amino acid modifications to the caerin 1.1 and to the caerin 1.9 peptides are shown in bold type with gray shading. All of the peptides studied have many simil ...
# [3] = test system: Lactobacillus rhamnosus, ATCC 39595; test: Bacterial growth assay, Lactobacillus rhamnosus; assay type: cell-based; conditions: for reduction of L. rhamnosus growth: vs no-peptide control; for inhibition of L. rhamnosus growth at highest concentration: 50 µM peptide (50 µm [sic]), one-way ANOVA with Tukey's post hoc test; for inhibition of L. rhamnosus growth, result in words: peptide tested at 0.4 or 0.8 to 50 µM; for viability as measured by 24-h growth of L. rhamnosus: range of concentrations 0.4–25 µM
# Procedure: (§1) Bacterial strains were obtained from the American Type Culture Collection (Lactobacillus crispatus, ATCC® 33197™; Lactobacillus rhamnosus, ATCC® 39595™; Neisseria lactamica (ATCC® 23970™). Growth assays were conducted to determine the concentrations at which each peptide inhibited the growth of the three bacterial species. The Lactobacillus bacteria were grown in de Man, Rogosa, and Sharpe (MRS) broth and the N. lactamica in Fastidious Broth. Bacterial cells were cultured in broth for 24 to 48 h until they reached an optical density of about 0.1 O.D. units at 630 nm and diluted to achieve a concentration of 10^6 cells per mL. The peptides were serially diluted with sterile water to reach peptide concentrations of 0.4, 0.8, 1.6, 3.12, 6.25, 12.5, 25, and 50 µM final concentrations in culture. The bacterial cells at 10^6 cells/mL and the peptides were plated in triplicate in a 96-well plate. Included was a negative control for growth (three to five replicates of bacteria plus penicillin-streptomycin), a positive control for growth (three to five replicates of bacteria plus water), and a blank (three to five replicates of broth plus water) to ensure the broth was not contaminated. Bacterial cells were plated in 50 µL of broth, and each dilution of peptides was added in a volume of 50 µL to achieve a total volume of 100 µL. For the positive control, 50 µL of sterile water was added to 50 µL of cells in broth. For the negative control, 50 µL of the antibiotic solution was added to 50 µL of cells in broth. The O.D. of each well was recorded before and after a 24-h incubation period at 37 °C using a Biotek ELx808 reader (Biotek, Winooski, VT, USA). Data for representative experiments are expressed as average O.D. ± standard error of the mean at each peptide concentration. To express data from replicate experiments, the average as percent growth in comparison with the positive (no peptide) control set at 100% for the range of concentrations from 6.25–50 µM is shown. […] A p-value of less than 0.05 was considered significant.
# [4] = test system: HIV; conditions: cited from earlier work; for inhibition of HIV infection, result in words: percent HIV infection of target T cells, 6.25–25 µM, replotted from a previous publication
# Excerpt: Its sequence is shown here for comparison with the synthetically modified caerin 1.1 peptide. Amino acid modifications to the caerin 1.1 and to the caerin 1.9 peptides are shown in bold type with gray shading. […] Thus, we first tested these four peptides for effects on growth of L. rhamnosus. […] To evaluate both parameters at once, we plotted the patterns of inhibition of HIV infection from a previous publication on the same axes as the new data for effects on L. rhamnosus and L. crispatus growth. […] Among all of the ...
# [5] = test system: Lactobacillus crispatus, ATCC 33197; test: Bacterial growth assay, Lactobacillus crispatus; assay type: cell-based; conditions: 24 h, 37 °C, O.D. 630 nm; for inhibition of L. crispatus growth at highest concentration: 50 µM peptide, MRS broth; for inhibition of L. crispatus growth at lower concentrations: concentrations of 25 µM or less; for effect on L. crispatus growth, result in words: peptide tested at 0.4 or 0.8 to 50 µM
# Procedure: as §1
# [6] = test system: Neisseria lactamica (ATCC 23970); test: Bacterial growth assay, Neisseria lactamica; assay type: cell-based; conditions: tested twice; 0.8 to 50 µM; 24 h, 37 °C
# Procedure: Bacterial strains were obtained from the American Type Culture Collection (Lactobacillus crispatus, ATCC® 33197™; Lactobacillus rhamnosus, ATCC® 39595™; Neisseria lactamica (ATCC® 23970™). Growth assays were conducted to determine the concentrations at which each peptide inhibited the growth of the three bacterial species. The Lactobacillus bacteria were grown in de Man, Rogosa, and Sharpe (MRS) broth and the N. lactamica in Fastidious Broth. Bacterial cells were cultured in broth for 24 to 48 h until they reached an optical density of about 0.1 O.D. units at 630 nm and diluted to achieve a concentration of 10^6 cells per mL. The peptides were serially diluted with sterile water to reach peptide concentrations of 0.4, 0.8, 1.6, 3.12, 6.25, 12.5, 25, and 50 µM final concentrations in culture. The bacterial cells at 10^6 cells/mL and the peptides were plated in triplicate in a 96-well plate. […] The O.D. of each well was recorded before and after a 24-h incubation period at 37 °C using a Biotek ELx808 reader (Biotek, Winooski, VT, USA). Data for representative experiments are expressed as average O.D. ± standard error of the mean at each peptide concentration. […]
# [7] = 25 µM peptide, MRS broth, 24 h, 37 °C, O.D. 630 nm
Substance,toxicity to T lymphocytes or endocervical cell lines [1],antibacterial spectrum [2],"reduction of L. rhamnosus growth [3, 7]","inhibition of L. rhamnosus growth at highest concentration ([3]; 24 h, 37 °C, O.D. 630 nm)","inhibition of L. rhamnosus growth, result in words ([3]; 24 h, 37 °C, O.D. 630 nm)",viability as measured by 24-h growth of L. rhamnosus [3],"inhibition of HIV (transmission), previous studies [4]","inhibition of HIV infection, result in words [4]","average bacterial growth of L. rhamnosus ([3]; 25 µM peptide, percent growth vs no-peptide control set at 100%, 10^6 cells/mL, MRS broth, 24 h, 37 °C, O.D. 630 nm, average of replicate experiments)",inhibition of L. crispatus growth at highest concentration [5],inhibition of L. crispatus growth at lower concentrations [5],"effect on L. crispatus growth, result in words [5]","inhibition of N. lactamica growth, comparison in words [6]","antibacterial activity, previously shown [2]"
"GLFGILGSVAKHVLPHVIPVVAEHL-NH2 [caerin 1.20, caerin 1 antimicrobial peptide, origin L. caerulea/L. splendida]",limited toxicity,wide-spectrum anti-bacterial agents,40–55%,significantly inhibited growth,slightly more inhibitory against L. rhamnosus than caerin 1.9,remained quite high,very effective inhibitors of HIV,slightly less effective in the inhibition of HIV,,,,,,
"GLFGVLGSIAKHLLPHVVPVIAEKL-NH2 [caerin 1.9 sm, synthetic analog of caerin 1.9 with a single amino acid change]",,,,,inhibited the growth of L. rhamnosus more than caerin 1.9; also recorded: inhibited growth to a greater extent than the previous four,,,equal or greater inhibition of HIV infection than caerin 1.9,,,,,,
"GLFGVLGSIAKHVLPHVVPVIAEKL-NH2 [caerin 1.9, caerin 1 antimicrobial peptide, origin L. chloris]",limited toxicity,wide-spectrum anti-bacterial agents,,significantly inhibited growth,least apparent inhibition of growth of both tested lactobacilli,remained quite high,very effective inhibitors of HIV,best profile of inhibition of HIV,about 83%,inhibitory,almost no inhibition,least apparent inhibition of growth of both tested lactobacilli,,
"GLLGVLGSVAKHVLPHVVPVIAEHL-NH2 [caerin 1.2, caerin 1 antimicrobial peptide, origin L. caerulea]",limited toxicity,wide-spectrum anti-bacterial agents,40–55%,significantly inhibited growth,,remained quite high,very effective inhibitors of HIV,effective inhibitors of HIV infection,,inhibitory,almost no inhibition,,less effective against N. lactamica than caerin 1.9 and caerin 1.10,
"GLLSSLSSVAKHVLPHVVPVIAEHL-NH2 [caerin 1.4, caerin 1 antimicrobial peptide, origin L. caerulea, L. gilleni; control peptide]",,,,,very limited inhibition of both species of lactobacilli; also recorded: almost no inhibition at any dose tested,,,inhibited HIV less than caerin 1.9,,,,largely unaffected; also recorded: very limited inhibition of both species of lactobacilli,,reduced antibacterial activity
"GLLSVLGSVAKHVLPHVVPVIAAAL-NH2 [caerin 1.1 mod 7, synthetically modified caerin 1.1 peptide]",,,,,inhibited the growth of L. rhamnosus more than caerin 1.9; also recorded: inhibited growth to a greater extent than the previous four,,,equal or greater inhibition of HIV infection than caerin 1.9,,,,,,
"GLLSVLGSVAKHVLPHVVPVIAEHL-NH2 [caerin 1.1, antimicrobial peptide from Litoria caerulea, reference compound]",,wide-spectrum anti-bacterial agents,,,,,less effective in the inhibition of HIV transmission than other caerin family peptides,,,,,,,
"GLLSVLGSVAKHVLPHVVPVIAEKL-NH2 [caerin 1.10, caerin 1 antimicrobial peptide, origin L. splendida]",limited toxicity,wide-spectrum anti-bacterial agents,40–55%,significantly inhibited growth,,remained quite high,very effective inhibitors of HIV,effective inhibitors of HIV infection,,no inhibition,,,,
"GLLSVLGSVAQHVLPHVVPVIAEHL-NH2 [caerin 1.3, caerin 1 antimicrobial peptide, origin L. caerulea; control peptide]",,,,,very limited inhibition of both species of lactobacilli; also recorded: almost no inhibition at any dose tested,,,inhibited HIV less than caerin 1.9,,,,largely unaffected; also recorded: very limited inhibition of both species of lactobacilli,,reduced antibacterial activity
